From ChEMBL document CHEMBL2086347, “Antitrypanosomal and cysteine protease inhibitory activities of alkyldiamine cryptolepine derivatives” (Bioorg Med Chem Lett, 2012)
pIC50: −log10 of the molar value.

Columns and labels:
[1] = test system: Trypanosoma brucei brucei; experiment: Antitrypanosomal activity against Trypanosoma brucei brucei; format: functional, organism-based
[2] = Inhibition of Trypanosoma cruzi cruzaine
[3] = target: T1, Cathepsin B-like cysteine protease (Trypanosoma brucei, UniProt Q6R7Z5); experiment: Inhibition of Trypanosoma brucei CatB
T1 sequence (Q6R7Z5 whole entry): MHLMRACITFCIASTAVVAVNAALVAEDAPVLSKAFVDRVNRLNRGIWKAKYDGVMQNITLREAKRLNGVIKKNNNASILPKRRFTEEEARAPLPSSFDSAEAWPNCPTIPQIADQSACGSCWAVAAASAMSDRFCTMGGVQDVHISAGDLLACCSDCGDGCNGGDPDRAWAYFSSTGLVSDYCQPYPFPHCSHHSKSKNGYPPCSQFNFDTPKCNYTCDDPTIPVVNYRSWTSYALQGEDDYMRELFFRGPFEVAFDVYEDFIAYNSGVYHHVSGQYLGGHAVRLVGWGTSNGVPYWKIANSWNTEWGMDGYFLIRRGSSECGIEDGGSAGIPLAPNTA

Rhodesain = Rhodesain (Trypanosoma brucei rhodesiense, UniProt Q95PM0); experiment: Inhibition of Trypanosoma brucei rhodesiense rhodesain
[4] = Cytotoxicity against african green monkey Vero cells; format: cell-based; conditions: chlorocebus sabaeus
[5] = Selectivity index, ratio of CC50 for african green monkey Vero cells to IC50 for Trypanosoma brucei brucei; format: functional

Rhodesain, sequence (Q95PM0 whole entry): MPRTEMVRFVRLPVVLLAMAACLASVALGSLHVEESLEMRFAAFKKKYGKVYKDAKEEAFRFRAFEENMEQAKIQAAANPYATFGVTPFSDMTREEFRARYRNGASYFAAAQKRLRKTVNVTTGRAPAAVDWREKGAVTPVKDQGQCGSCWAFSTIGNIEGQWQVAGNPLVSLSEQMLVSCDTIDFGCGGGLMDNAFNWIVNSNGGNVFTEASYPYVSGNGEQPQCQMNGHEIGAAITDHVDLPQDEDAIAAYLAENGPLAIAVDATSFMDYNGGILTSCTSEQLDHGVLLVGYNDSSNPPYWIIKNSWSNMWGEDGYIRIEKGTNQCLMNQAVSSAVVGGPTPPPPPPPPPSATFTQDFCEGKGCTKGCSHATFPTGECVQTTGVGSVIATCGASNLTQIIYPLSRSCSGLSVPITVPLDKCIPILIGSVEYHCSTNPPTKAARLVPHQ

Row | SMILES | pIC50 [1] | pIC50 [2] | pIC50 [3] | pIC50 (Rhodesain) | CC50 [4] [µM] | Ratio CC50/IC50 [5]
1 | C[n+]1c2cc(Cl)ccc2c(NC2CCNCC2)c2[nH]c3ccccc3c21.[Cl-] | 6.52 | 6.00 | 4.23 | 6.30 | 4.4 | 147
2 | C[n+]1c2cc(Cl)ccc2c(NC2CCNCC2)c2[nH]c3cc(Cl)ccc3c21.[Cl-] | > 8.22 | 6.00 | 4.37 | 6.30 | 0.8 | 133
3 | CCN(CC)CCCCNc1c2ccccc2[n+](C)c2c1[nH]c1ccccc12.[Cl-] | 7.52 | 4.66 | 4.26 | 5.22 | 10 | 333
4 | C[n+]1c2ccccc2c(Nc2ccc(N3CCCCC3)cc2)c2[nH]c3ccccc3c21.[Cl-] | 7.10 | 5.52 | 4.12 | 6.00 | 4.8 | 60
5 | CC(C)CN1CCC(Nc2c3ccccc3[n+](C)c3c2[nH]c2ccccc23)CC1.[Cl-] | 7.30 | 5.10 | 4.59 | 5.70 | 5 | 100
6 | C[n+]1c2ccccc2c(NC2CCN(Cc3ccccc3)CC2)c2[nH]c3ccccc3c21.[Cl-] | 7.52 | 5.10 | 4.49 | 5.40 | 2.2 | 73
7 | C[n+]1c2ccccc2c(NC2CCN(Cc3ccccc3O)CC2)c2[nH]c3ccccc3c21.[Cl-] | 7.40 | 5.22 | 4.59 | 6.05 | 2.6 | 65
8 | C[n+]1c2ccccc2c(Nc2ccccc2)c2[nH]c3ccccc3c21.[Cl-] | 6.52 | 4.82 | 4.00 | 5.15 | 0.6 | 2
9 | CCN(CC)Cc1ccc(Nc2c3ccccc3[n+](C)c3c2[nH]c2ccccc23)cc1O.[Cl-] | 7.52 | 5.00 | 4.23 | 5.30 | 0.8 | 27
10 | C[n+]1c2ccccc2c(Nc2cccnc2)c2[nH]c3ccccc3c21.[Cl-] | 6.52 | 5.30 | 4.23 | 5.70 | 2.6 | 8.6
11 | CCN(CC)CCCNc1c2ccc(Cl)cc2[n+](C)c2c1[nH]c1ccccc12.[Cl-] | 7.70 | 5.70 | 4.19 | 6.30 | 1.3 | 65
12 | CCN(CC)CCNc1c2ccccc2[n+](C)c2c1[nH]c1ccccc12.[Cl-] | 6.05 | 4.64 | 4.02 | 4.96 | 2.8 | 3.1
13 | CN(C)CCCNc1c2ccccc2[n+](C)c2c1[nH]c1ccccc12.[Cl-] | 7.52 | 4.85 | 4.51 | 5.22 | 2.2 | 73
14 | CCN(CC)CCCNc1c2ccccc2[n+](C)c2c1[nH]c1ccccc12.[Cl-] | 7.30 | 4.47 | 4.01 | 4.89 | 2.5 | 40
15 | CC(C)NCCCNc1c2ccccc2[n+](C)c2c1[nH]c1ccccc12.[Cl-] | 7.00 | 4.38 | 4.21 | 4.59 | 3 | 30
16 | CCN(CC)CCCC(C)Nc1c2ccccc2[n+](C)c2c1[nH]c1ccccc12.[Cl-] (stereo unspecified) | 6.40 | 4.57 | < 4.00 | 4.77 | 13 | 33
17 | CC(CN(C)C)Nc1c2ccccc2[n+](C)c2c1[nH]c1ccccc12.[Cl-] (stereo unspecified) | 6.00 | 5.00 | < 4.00 | 5.30 | 3 | 3
18 | C[n+]1c2ccccc2c(NC2CCNCC2)c2[nH]c3ccccc3c21.[Cl-] | 8.00 | 5.52 |  | 5.70 | 62 | 6200
19 | CN(C)CC(C)(C)CNc1c2ccccc2[n+](C)c2c1[nH]c1ccccc12.[Cl-] | 6.52 | 4.59 | 4.21 | 4.72 | 3 | 10
20 | C[n+]1c2ccccc2c(NCCCN2CCCCC2)c2[nH]c3ccccc3c21.[Cl-] | 7.22 | 4.96 | 4.22 | 5.30 | 2 | 33
21 | CN(C)CCNc1c2ccccc2[n+](C)c2c1[nH]c1ccccc12.[Cl-] | 6.15 | 4.64 | 4.04 | 5.15 | 5.5 | 7.9
22 | C[n+]1c2ccccc2cc2[n-]c3ccccc3c21.Cl [CRYPTOLEPINE HYDROCHLORIDE] | 5.70 | 4.55 | 4.19 | 4.64 | 1.1 | 0.6
